Where two headings read alike, the source gives them in different places.
Experiments:
[1] = tested on: HeLa MKYP cells; test: Human mitophagy assay (HeLa mKeima assay, FACS); type: cell-based
Experimental: Briefly, HeLa MKYP cells were plated at 10,000 cells/well in 96 well plates along with compounds at various concentrations. Following 16 hrs of incubation, cells were treated with 1 uM FCCP/oligomycin for 6 hours, then analyzed via FACS for the presence of mitochondria in lysosomes (as determined by an emissions spectrum shift from the pH-sensitive mtKeima tag).
Briefly, HeLa cells expressing a mitophagy indicator (mtKeima) protein were treated with […] of FCCP and Oligomycin followed by the specified dose of compound, then analyzed by FACS to quantify the percentage of cells undergoing mitophagy.

[2] = tested on: HeLa MKYP cells; test: Cell death measured by DAPI staining, with 1 μM FCCP/oligomycin or no toxin (no FO); type: cell-based; details: for Max cell death at 25 μM compound, 1 uM FO (%) / Cell death at 25 μM (no FO) (%): 25 μM compound
Experimental: EP-0035985, EP-0037821, EP-0038098, and EP-0038099 in the presence of 1 μM FCCP/oligomycin or with no toxin (no FO) for 6 hrs. H2O2 treatment was performed as a control for cell death as measured by DAPI staining.
EP-0035985, EP-0038461, EP-0038463, and EP-0038503 in the presence of 1 μM FCCP/oligomycin or with no toxin (no FO) for 6.5 hrs. H2O2 treatment was performed as a control for cell death as measured by DAPI staining.
EP-0035985, EP-0038504, EP-0038508, and EP-0038521 in the presence of 1 μM FCCP/oligomycin or with no toxin (no FO) for 6.5 hrs. H2O2 treatment was performed as a control for cell death as measured by DAPI staining.
EP-0035985, EP-0038461, EP-0038463, EP-0038503, EP-0038504, EP-0038508, and EP-0038521 in the presence of 1 μM FCCP/oligomycin or with no toxin (no FO) for 6.5 hrs. H2O2 treatment was performed as a control for cell death as measured by DAPI staining.

[3] = Homo sapiens, HeLa, read-out: Mitophagy induction EC50
[4] = read-out: Mitophagy induction EC50
[5] = Homo sapiens, HeLa, HeLa mKeima assay, read-out: Mitophagy EC50 (HeLa mKeima assay)

| Structure (SMILES) | EC50 [1, 3] | Highest safe dose (cytotoxicity; no FO; safe means DAPI+ <20%) [2] | Max % death with 1 μM FO [2] | EC50 [1, 4] | EC50 [1, 5] | Max cell death at 25 μM compound, 1 uM FO (%) [2] | Cell death at 25 μM (no FO) (%) [2] |
| --- | --- | --- | --- | --- | --- | --- | --- |
| CC(C)(O)C1CN([C@H]2COc3ccccc3[C@@H]2Nc2ncnc3[nH]c(C(F)(F)F)cc23)C1 (single isomer, unassigned) [EP-0041490] | > 25 µM | 25.0 µM | 3.4% |  |  |  |  |
| COC[C@@H]1CCCN1[C@H]1COc2ccccc2[C@@H]1Nc1ncnc2[nH]c(C(F)(F)F)cc12 (single isomer, unassigned) [EP-0041491] | 10.2 µM | 25.0 µM | 3.7% |  |  |  |  |
| COC[C@H]1CCCN1[C@H]1COc2ccccc2[C@@H]1Nc1ncnc2[nH]c(C(F)(F)F)cc12 (single isomer, unassigned) [EP-0041492] | 1.78 µM | 25.0 µM | 8.3% |  |  |  |  |
| C[S@](=N)(=O)C1CN([C@H]2COc3ccccc3[C@@H]2Nc2ncnc3[nH]c(C(F)(F)F)cc23)C1 (single isomer, unassigned) [EP-0041495] |  | 25.0 µM | 2.9% | 2.52 µM |  |  |  |
| C[S@](=N)(=O)C1CN([C@H]2COc3ccccc3[C@@H]2Nc2ncnc3[nH]c(C(F)(F)F)cc23)C1 (single isomer, unassigned) [EP-0041497] |  | 25.0 µM | 2.6% | 22 µM |  |  |  |
| C[S@@](=N)(=O)C1CN(C2COc3ccccc3C2Nc2ncnc3[nH]c(C(F)(F)F)cc23)C1 (single isomer, unassigned) [EP-0041498] | > 25 µM | 25.0 µM | 3.7% |  |  |  |  |
| COC[C@@H]1CCN(C2COc3ccccc3C2Nc2ncnc3[nH]c(C4CC4)cc23)C1 (single isomer, unassigned) [EP-0041515] |  | 25.0 µM | 5.6% | 5.06 µM |  |  |  |
| FC(F)(F)c1cc2c(N[C@H]3c4ccccc4OC[C@@H]3N3CCC4(COC4)C3)ncnc2[nH]1 (single isomer, unassigned) [EP-0041516] | 3.24 µM | 25.0 µM | 11.8% |  |  |  |  |
| OC[C@H]1CN([C@H]2COc3ccccc3[C@@H]2Nc2ncnc3[nH]c(C(F)(F)F)cc23)CCO1 (single isomer, unassigned) [EP-0041558] |  | 25.0 µM | 10.6% | 1.42 µM |  |  |  |
| OC[C@H]1CN([C@H]2COc3ccccc3[C@@H]2Nc2ncnc3[nH]c(C(F)(F)F)cc23)CCO1 (single isomer, unassigned) [EP-0041559] |  | 25.0 µM | 3.7% | 10.3 µM |  |  |  |
| OC[C@@H]1CN([C@H]2COc3ccccc3[C@@H]2Nc2ncnc3[nH]c(C(F)(F)F)cc23)CCO1 (single isomer, unassigned) [EP-0041585] | 16.1 µM | 25.0 µM | 6.6% |  |  |  |  |
| OC[C@@H]1CN([C@H]2COc3ccccc3[C@@H]2Nc2ncnc3[nH]c(C(F)(F)F)cc23)CCO1 (single isomer, unassigned) [EP-0041586] |  | 25.0 µM | 10.7% | 9.59 µM |  |  |  |
| c1ccc2c(c1)OCC(N1CC3CCOC3C1)C2Nc1ncnc2[nH]c(C3CC3)cc12 (single isomer, unassigned) [EP-0041667] |  | 25.0 µM | 3.1% | > 25 µM |  |  |  |
| c1ccc2c(c1)OCC(N1CC3CCOC3C1)C2Nc1ncnc2[nH]c(C3CC3)cc12 (single isomer, unassigned) [EP-0041669] |  | 25.0 µM | 2.5% | > 25 µM |  |  |  |
| Fc1ccc2c(c1)CC[C@@H](N1CCOCC1)[C@@H]2Nc1ncnc2[nH]c(C3CC3)cc12 [EP-0039747] | 9.31 µM | 25.0 µM | 24.4% |  | 9.31 µM | 24.4% | 12.9% |
| N#Cc1cn([C@@H]2CCc3ccccc3[C@@H]2Nc2ncnc3[nH]c(C(F)(F)F)cc23)cn1 [EP-0039748] | 8.07 µM | 25.0 µM | 6.5% |  |  |  |  |
| FC(F)(F)c1cc2c(N[C@H]3c4ccccc4C[C@@H]3N3C[C@H]4COC[C@H]4C3)ncnc2[nH]1 [EP-0039754] | > 25 µM | 25.0 µM | 17.7% |  |  |  |  |
| c1ccc2c(c1)C[C@H](N1C[C@H]3COC[C@H]3C1)[C@H]2Nc1ncnc2[nH]c(C3CC3)cc12 [EP-0040075] | > 25 µM | 25.0 µM | 6.5% |  |  |  |  |
| FC(F)(F)c1cc2c(N[C@H]3c4ccccc4OC[C@@H]3N3CCOCC3)ncnc2[nH]1 [EP-0040078] | 1.9 µM | 25.0 µM | 18.5% |  | 1.77 µM | 18% | 5.92% |
| FC(F)(F)c1cc2c(N[C@H]3c4ccccc4OC[C@H]3N3CCOCC3)ncnc2[nH]1 [EP-0040084] | 15.6 µM | 25.0 µM | 3.7% |  |  |  |  |
| OC[C@@H]1CCCN1[C@H]1CCc2ccccc2[C@@H]1Nc1ncnc2[nH]c(C3CC3)cc12 [EP-0040085] | > 25 µM | 8.3 µM | 38.1% |  |  |  |  |
| FC(F)(F)c1cc2c(N[C@H]3c4ccccc4CC[C@@H]3N3CCCOCC3)ncnc2[nH]1 [EP-0040139] | 3.66 µM | 25.0 µM | 8.5% |  |  |  |  |
| c1ccc2c(c1)OC[C@@H](N1CCOCC1)[C@H]2Nc1ncnc2[nH]c(C3CC3)cc12 [EP-0040140] | 8.71 µM | 25.0 µM | 11.1% |  |  |  |  |
| FC(F)(F)c1cc2c(N[C@@H]3c4ccccc4OC[C@H]3N3CCOCC3)ncnc2[nH]1 [EP-0040252] | 1.11 µM | 25.0 µM | 9.1% |  |  |  |  |
| Fc1ccc2c(c1)OC[C@H](N1CCOCC1)[C@H]2Nc1ncnc2[nH]c(C3CC3)cc12 [EP-0040500] | 0.99 µM | 25.0 µM | 8.6% |  |  |  |  |
| C[C@@]12COC[C@]1(C)CN(C1CCc3ccccc3C1Nc1ncnc3[nH]c(C(F)(F)F)cc13)C2 (stereo partly drawn) [EP-0040523] | 2.73 µM | 25.0 µM | 39.0% |  |  |  |  |
| C[C@@]12COC[C@]1(C)CN(C1COc3ccccc3C1Nc1ncnc3[nH]c(C(F)(F)F)cc13)C2 (stereo partly drawn) [EP-0040524] | 2.68 µM | 25.0 µM | 27.7% |  |  |  |  |
| C[C@@]12COC[C@]1(C)CN(C1CCc3ccccc3C1Nc1ncnc3[nH]c(C4CC4)cc13)C2 (stereo partly drawn) [EP-0040542] | 1.45 µM | 25.0 µM | 15.3% |  |  |  |  |
| FC(F)(F)c1cc2c(NC3c4ccccc4OCC3N3CCC4(CCOC4)CC3)ncnc2[nH]1 (stereo not drawn) [EP-0040545] | > 25 µM | 25.0 µM | 3.7% |  |  |  |  |

Source: US20240018146A1, “COMPOSITIONS AND METHODS OF USING THE SAME FOR TREATMENT OF NEURODEGENERATIVE AND MITOCHONDRIAL DISEASE” (MITOKININ, INC., priority 2020, published 2024)
